Measured values as given in patent US11827627B2, “N-(hydroxyalkyl (hetero)aryl) tetrahydrofuran carboxamides as modulators of sodium channels” (VERTEX PHARMACEUTICALS INCORPORATED, priority 2021, dated 2023).

Molecular target: human NaV 1.8 (Homo sapiens, UniProt Q9Y5Y9)
Test: E-VIPR assay detecting and measuring NaV inhibition properties
Assay type: cell-based
Settings: HEK cells expressing a truncated form of human NaV 1.8; electrical stimulation, membrane potential FRET dyes
Source text: E-VIPR Assay Detecting and Measuring NaV Inhibition Properties
Sodium ion channels are voltage-dependent proteins that can be activated by inducing membrane voltage changes by applying electric fields. The electrical stimulation instrument and methods of use, referred to as E-VIPR, are described in International Publication No. WO 2002/008748 A3 and C.-J. Huang et al. Characterization of voltage-gated sodium channel blockers by electrical stimulation and fluorescence detection of membrane potential, 24 Nature Biotech. 439-46 (2006), both of which are incorporated by reference in their entirety. The instrument comprises a microtiter plate handler, an optical system for exciting the coumarin dye while simultaneously recording the coumarin and oxonol emissions, a waveform generator, a current- or voltage-controlled amplifier, and parallel electrode pairs that are inserted into assay plate wells. Under integrated computer control, this instrument passes user-programmed electrical stimulus protocols to cells within the wells of the microtiter plate.
16-20 hours prior to running the assay on E-VIPR, HEK cells expressing a truncated form of human NaV 1.8 with full channel activity were seeded into microtiter 384-well plates, pre-coated with matrigel, at a density of 25,000 cells per well. 2.5-5% KIR2.1 Bacmam virus was added to the final cell suspension before seeding into cell plates. HEK cells were grown in Dulbecco's Modified Eagle's Medium (DMEM) supplemented with 10% FBS (Fetal Bovine Serum, qualified; Sigma #F4135), 1% NEAA (Non-Essential Amino Acids, Gibco #11140), 1% HEPES (Gibco #15630), 1% Pen-Strep (Penicillin-Streptomycin; Gibco #15140) and 5 μg/ml Blasticidin (Gibco #R210-01). Cells were expanded in vented cap cell culture flasks, with 90-95% humidity and 5% CO2.
Reagents and Stock Solutions:
100 mg/mL Pluronic F-127 (Sigma #P2443), in dry DMSO
Compound Plates: Corning 384-well Polypropylene Round Bottom #3656
Cell Plates: 384-well tissue culture treated plates (Greiner #781091-2B)
2.5-5% KIR 2.1 Bacmam virus (produced in-house), prepared as described in Section 3.3 of J. A. Fornwald et al., Gene Expression in Mammalian Cells Using BacMam, a Modified Baculovirus System, 1350 Methods in Molecular Biology 95-116 (2016), the entire contents of which are incorporated by reference. The concentration used can be dependent on viral titer of each batch.
5 mM DiSBAC6(3), a voltage sensitive oxonol acceptor (CAS number 169211-44-3; 5-[3-(1,3-dihexylhexahydro-4,6-dioxo-2-thioxo-5-pyrimidinyl)-2-propen-1-ylidene]-1,3-dihexyldihydro-2-thioxo-4,6(1H,5H)-pyrimidinedione), in dry DMSO. The preparation of DiSBAC6(3) is analogous to that of DiSBAC4(3) as described in Voltage Sensing by Fluorescence Resonance Energy Transfer in Single Cells, Gonzalez, J. E. and Tsien, R. Y. (1995) Biophys. J. 69, 1272-1280.
5 mM CC2-DMPE, a commercially available membrane-bound coumarin phospholipid FRET donor (ThermoFisher Scientific catalog number K1017, CAS number 393782-57-5; tetradecanoic acid, 1,1′-[(1R)-1-[8-(6-chloro-7-hydroxy-2-oxo-2H-1-benzopyran-3-yl)-3-hydroxy-3-oxido-8-oxo-2,4-dioxa-7-aza-3-phosphaoct-1-yl]-1,2-ethanediyl]ester) was prepared in dry DMSO. See also, Improved indicators of cell membrane potential that use fluorescence resonance energy transfer, Gonzalez, J. E. and Tsien, R. Y. (1997) Chem. Biol. 4, 269-277.
Voltage Assay Background Suppression Compound (VABSC-1) is prepared in H2O (89-363 mM, range used to maintain solubility)
Human Serum (HS, Millipore #S1P1-01KL, or Sigma SLBR5469V and SLBR5470V as a 50%/50% mixture, for 25% assay final concentration)
Bath 1 Buffer: • Sodium Chloride 160 mM (9.35 g/L), Potassium Chloride, 4.5 mM (0.335 g/L), Glucose 10 mM (1.8 g/L), Magnesium Chloride (Anhydrous) 1 mM (0.095 g/L), Calcium Chloride 2 mM (0.222 g/L), HEPES 10 mM (2.38 g/L) in water. […]

human NaV 1.8, sequence (Q9Y5Y9 126-1722 limits assumed): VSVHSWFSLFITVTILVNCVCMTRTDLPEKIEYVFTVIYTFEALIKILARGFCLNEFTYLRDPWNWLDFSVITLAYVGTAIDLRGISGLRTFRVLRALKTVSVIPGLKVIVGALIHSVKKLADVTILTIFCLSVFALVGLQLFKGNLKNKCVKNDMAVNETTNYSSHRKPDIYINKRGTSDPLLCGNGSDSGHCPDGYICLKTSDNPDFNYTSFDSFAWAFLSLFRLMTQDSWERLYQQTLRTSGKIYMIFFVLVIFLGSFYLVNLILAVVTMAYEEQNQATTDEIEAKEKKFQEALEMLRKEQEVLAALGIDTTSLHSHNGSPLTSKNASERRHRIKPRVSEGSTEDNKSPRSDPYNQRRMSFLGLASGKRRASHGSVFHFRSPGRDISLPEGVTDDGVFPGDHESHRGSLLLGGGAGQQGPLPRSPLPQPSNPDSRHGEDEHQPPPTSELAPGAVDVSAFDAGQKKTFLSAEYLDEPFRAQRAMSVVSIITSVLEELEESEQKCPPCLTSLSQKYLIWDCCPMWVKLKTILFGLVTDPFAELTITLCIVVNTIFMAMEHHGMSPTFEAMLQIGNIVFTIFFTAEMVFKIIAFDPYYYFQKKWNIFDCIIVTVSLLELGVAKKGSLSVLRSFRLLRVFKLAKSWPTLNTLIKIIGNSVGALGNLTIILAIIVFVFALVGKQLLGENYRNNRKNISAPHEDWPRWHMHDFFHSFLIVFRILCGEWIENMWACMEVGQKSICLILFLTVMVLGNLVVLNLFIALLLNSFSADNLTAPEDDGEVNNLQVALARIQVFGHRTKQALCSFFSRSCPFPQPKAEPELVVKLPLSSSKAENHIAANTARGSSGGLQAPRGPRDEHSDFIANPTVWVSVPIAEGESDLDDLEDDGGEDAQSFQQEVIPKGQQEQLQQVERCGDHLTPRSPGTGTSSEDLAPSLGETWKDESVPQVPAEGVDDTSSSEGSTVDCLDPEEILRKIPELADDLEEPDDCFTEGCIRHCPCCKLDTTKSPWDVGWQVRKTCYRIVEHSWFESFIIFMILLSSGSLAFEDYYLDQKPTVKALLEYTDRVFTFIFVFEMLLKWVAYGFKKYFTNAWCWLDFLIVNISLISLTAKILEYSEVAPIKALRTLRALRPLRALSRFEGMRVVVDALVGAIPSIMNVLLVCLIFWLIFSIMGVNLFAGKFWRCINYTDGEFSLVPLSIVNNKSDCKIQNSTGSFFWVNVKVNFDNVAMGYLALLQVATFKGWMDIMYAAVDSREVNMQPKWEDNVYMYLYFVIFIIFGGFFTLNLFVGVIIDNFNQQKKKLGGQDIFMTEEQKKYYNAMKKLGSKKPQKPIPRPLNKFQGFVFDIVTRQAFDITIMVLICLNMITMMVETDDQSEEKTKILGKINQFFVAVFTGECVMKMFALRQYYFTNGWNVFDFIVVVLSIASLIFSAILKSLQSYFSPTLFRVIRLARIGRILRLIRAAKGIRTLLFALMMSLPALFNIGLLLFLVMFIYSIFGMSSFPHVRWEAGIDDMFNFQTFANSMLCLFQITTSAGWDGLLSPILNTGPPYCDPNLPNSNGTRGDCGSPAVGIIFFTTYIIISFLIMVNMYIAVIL

IC50 | Compound
≥ 1000 nM | COc1c([C@@H]2[C@@H](C(=O)Nc3cnc(C(O)CO)nc3)O[C@](C)(C(F)(F)F)[C@@H]2C)cccc1C(F)(F)F (single isomer, unassigned) [Compound 72]
≥ 1000 nM | COc1c([C@@H]2[C@@H](C(=O)Nc3ccc([C@@H](O)CO)nc3)O[C@](C)(C(F)(F)F)[C@@H]2C)cccc1C(F)(F)F (single isomer, unassigned) [Compound 69, rel-(2S,3R,4R,5S)-N-(6-((R*)-1,2-dihydroxyethyl)pyridin-3-yl)-3-(2-methoxy-3-(trifluoromethyl)phenyl)-4,5-dimethyl-5-(trifluoromethyl)tetrahydrofuran-2-carboxamide]
< 10 nM | COc1c([C@H]2[C@H](C(=O)Nc3ccc([C@@H](O)CO)nc3)O[C@@](C)(C(F)(F)F)[C@H]2C)cccc1C(F)(F)F (single isomer, unassigned) [Compound 70, rel-(2R,3S,4S,5R)-N-(6-((R*)-1,2-dihydroxyethyl)pyridin-3-yl)-3-(2-methoxy-3-(trifluoromethyl)phenyl)-4,5-dimethyl-5-(trifluoromethyl)tetrahydrofuran-2-carboxamide]
< 10 nM | COc1c([C@H]2[C@H](C(=O)Nc3ccc([C@H](O)CO)nc3)O[C@@](C)(C(F)(F)F)[C@H]2C)ccc(F)c1C(F)F (single isomer, unassigned) [Compound 49, rel-(2R,3S,4S,5R)-3-(3-(difluoromethyl)-4-fluoro-2-methoxyphenyl)-N-(6-((S*)-1,2-dihydroxyethyl)pyridin-3-yl)-4,5-dimethyl-5-(trifluoromethyl)tetrahydrofuran-2-carboxamide]
10 to 100 nM | COCC(O)c1ccc(NC(=O)[C@@H]2O[C@@](C)(C(F)(F)F)[C@@H](C)[C@H]2c2ccc(F)c(F)c2OC)cn1 (single isomer, unassigned) [Compound 20, rel-(2R*,3S*,4S*,5R*)-3-(3,4-difluoro-2-methoxyphenyl)-N-(6-(1-hydroxy-2-methoxyethyl)pyridin-3-yl)-4,5-dimethyl-5-(trifluoromethyl)tetrahydrofuran-2-carboxamide]
< 10 nM | COc1c([C@H]2[C@H](C(=O)Nc3ccc([C@@H](O)[C@@H](C)O)nc3)O[C@@](C)(C(F)(F)F)[C@H]2C)ccc(F)c1F (single isomer, unassigned) [Compound 3, rel-(2R*,3S*,4S*,5R*)-3-(3,4-difluoro-2-methoxyphenyl)-N-(6-((1R,2R)-1,2-dihydroxypropyl)pyridin-3-yl)-4,5-dimethyl-5-(trifluoromethyl)tetrahydrofuran-2-carboxamide]
100 to 1000 nM | COc1c([C@@H]2C[C@](C)(C(F)(F)F)O[C@H]2C(=O)Nc2ccc([C@H](O)CO)nc2)ccc(F)c1F (single isomer, unassigned) [Compound 26, rel-(2R,3S,5R)-3-(3,4-difluoro-2-methoxyphenyl)-N-(6-((S*)-1,2-dihydroxyethyl)pyridin-3-yl)-5-methyl-5-(trifluoromethyl)tetrahydrofuran-2-carboxamide]
< 10 nM | COc1c([C@H]2[C@H](C(=O)Nc3ccc(CO)nc3)O[C@@](C)(C(F)(F)F)[C@H]2C)ccc(F)c1F [Compound 14, (2R,3S,4S,5R)-3-(3,4-difluoro-2-methoxyphenyl)-N-(6-(hydroxymethyl)pyridin-3-yl)-4,5-dimethyl-5-(trifluoromethyl)tetrahydrofuran-2-carboxamide]
100 to 1000 nM | COc1c([C@@H]2C[C@](C)(C(F)(F)F)O[C@H]2C(=O)Nc2cnc(C(O)CO)nc2)ccc(F)c1F (single isomer, unassigned) [Compound 29]
≥ 1000 nM | COc1c([C@@H]2[C@@H](C(=O)Nc3ccc([C@H](O)CO)nc3)O[C@](C)(C(F)(F)F)[C@@H]2C)ccc(F)c1C(F)F (single isomer, unassigned) [Compound 48, rel-(2S,3R,4R,5S)-3-(3-(difluoromethyl)-4-fluoro-2-methoxyphenyl)-N-(6-((S*)-1,2-dihydroxyethyl)pyridin-3-yl)-4,5-dimethyl-5-(trifluoromethyl)tetrahydrofuran-2-carboxamide]
< 10 nM | Cc1c([C@H]2[C@H](C(=O)Nc3ccc(CO)nc3)O[C@@](C)(C(F)(F)F)[C@H]2C)ccc(F)c1F (single isomer, unassigned) [Compound 80]
10 to 100 nM | COCCC(O)c1ccc(NC(=O)[C@@H]2O[C@@](C)(C(F)(F)F)[C@@H](C)[C@H]2c2ccc(F)c(F)c2OC)cn1 (single isomer, unassigned) [Compound 22, rel-(2R*,3S*,4S*,5R*)-3-(3,4-difluoro-2-methoxyphenyl)-N-(6-(1-hydroxy-3-methoxypropyl)pyridin-3-yl)-4,5-dimethyl-5-(trifluoromethyl)tetrahydrofuran-2-carboxamide]
100 to 1000 nM | COc1nc(C(F)F)ccc1[C@H]1[C@H](C(=O)Nc2ccc(CO)nc2)O[C@@](C)(C(F)(F)F)[C@H]1C (stereo in doubt) [Compound 88, rel-(2R,3S,4S,5R)-3-(6-(difluoromethyl)-2-methoxypyridin-3-yl)-N-(6-(hydroxymethyl)pyridin-3-yl)-4,5-dimethyl-5-(trifluoromethyl)tetrahydrofuran-2-carboxamide]
≥ 1000 nM | COc1c([C@@H]2[C@@H](C(=O)Nc3ccc([C@@H](O)CO)nc3)O[C@](C)(C(F)(F)F)[C@@H]2C)ccc(F)c1C (single isomer, unassigned) [Compound 46, rel-(2S,3R,4R,5S)-N-(6-((R*)-1,2-dihydroxyethyl)pyridin-3-yl)-3-(4-fluoro-2-methoxy-3-methylphenyl)-4,5-dimethyl-5-(trifluoromethyl)tetrahydrofuran-2-carboxamide]
≥ 1000 nM | COc1c([C@@H]2[C@@H](C(=O)Nc3ccc(C(C)O)nc3)O[C@](C)(C(F)(F)F)[C@@H]2C)ccc(F)c1C(F)F (single isomer, unassigned) [Compound 57]
≥ 1000 nM | COc1c([C@H]2C[C@@](C)(C(F)(F)F)O[C@@H]2C(=O)Nc2ccc([C@@H](O)CO)nc2)ccc(F)c1F (relative stereo) [Compound 25, rel-(2S,3R,5S)-3-(3,4-difluoro-2-methoxyphenyl)-N-(6-((R*)-1,2-dihydroxyethyl)pyridin-3-yl)-5-methyl-5-(trifluoromethyl)tetrahydrofuran-2-carboxamide]
≥ 1000 nM | Cc1c([C@@H]2[C@@H](C)[C@@](C)(C(F)(F)F)O[C@H]2C(=O)Nc2ccc([C@@H](O)CO)nc2)ccc(F)c1F (single isomer, unassigned) [Compound 67, rel-(2R,3S,4R,5S)-3-(3,4-difluoro-2-methylphenyl)-N-(6-((R*)-1,2-dihydroxyethyl)pyridin-3-yl)-4,5-dimethyl-5-(trifluoromethyl)tetrahydrofuran-2-carboxamide]
< 10 nM | CCOc1c([C@H]2[C@H](C(=O)Nc3ccc([C@H](O)CO)nc3)O[C@@](C)(C(F)(F)F)[C@H]2C)ccc(F)c1C (single isomer, unassigned) [Compound 42, rel-(2R,3S,4S,5R)-N-(6-((S*)-1,2-dihydroxyethyl)pyridine-3-yl)-3-(2-ethoxy-4-fluoro-3-methylphenyl)-4,5-dimethyl-5-(trifluoromethyl)tetrahydrofuran-2-carboxamide]
